For orientation: pEC50 means −log10 of the EC50, conventionally taken in molar units.

pEC50: −log10 of the molar value. Several values for one entry are separate records, joined by “and”; a condition that tells them apart may be missing. Equal values may be shown once. A value given as a limit tells only on which side of the number the result lay.

Results on 60 compounds are retold here after patent publication US9708359B2, “Pyrrolopyrimidine nucleosides and analogs thereof” (Chimerix, Inc., priority 2015, dated 2017).

In one assay the test system is mouse norovirus. As to the kind of experiment: Mouse Norovirus (MNV) assay in RAW cells. To be noted: murine norovirus, Table 7.
For `Cc1nc(N)c2c(C(N)=O)cn([C@@H]3O[C@H](COC(=O)[C@@H](N)CC(C)C)[C@@H](O)[C@H]3O)c2n1` [Compound 77], the pEC50 was 5.36.

Turning to `Cc1nc(N)c2c(C(N)=O)cn([C@@H]3O[C@H](COP(=O)(N[C@@H](C)C(=O)OCc4ccccc4)Oc4ccccc4)[C@@H](O)[C@H]3O)c2n1` (stereo partly drawn) [Compound 107], the negative-log EC50 (pEC50) was 4.74.

Compound `COC(=O)[C@H](C)NP(=O)(OC[C@H]1O[C@@H](n2cc(C(N)=O)c3c(N)nc(C)nc32)[C@H](O)[C@@H]1O)Oc1ccccc1` (stereo partly drawn) [Compound 111] had a pEC50 of 4.68. This pEC50 and that of the compound before are within 0.2 log units of each other. Same read-out and setting: the figure for `Cc1nc(N)c2c(C(N)=O)cn([C@@H]3O[C@H](COP(=O)(N[C@@H](C)C(=O)OCc4ccccc4)N[C@H](C)C(=O)OCc4ccccc4)[C@@H](O)[C@H]3O)c2n1` [Compound 126] is 4.47 and 4.41. Still for that read-out and setting: under `Cc1nc(N)c2c(C(N)=O)cn([C@@H]3O[C@H](COP(=O)(N[C@@H](C)C(=O)OC(C)C)Oc4ccccc4)[C@@H](OC(=O)C(C)C)[C@H]3OC(=O)C(C)C)c2n1` (stereo partly drawn) [Compound 133] stands 4.59; under `Cc1nc(N)c2c(C(N)=O)cn([C@@H]3O[C@H](COP(=O)(N[C@@H](C)C(=O)OC(C)C)OCc4ccccc4C)[C@@H](O)[C@H]3O)c2n1` (stereo partly drawn) [Compound 137], 4.70.

Regarding `CCCCCCCCCCCCCCCCOCCCOC(=O)[C@H](C)NP(=O)(OC[C@H]1O[C@@H](n2cc(C(N)=O)c3c(N)nc(C)nc32)[C@H](O)[C@@H]1O)Oc1ccccc1` (stereo partly drawn) [Compound 139], the pEC50 is 5.64. Same read-out and setting: the figure for `Cc1nc(N)c2c(C(N)=O)cn([C@@H]3O[C@H](COP(=O)(O)N[C@@H](C)C(=O)OC(C)C)[C@@H](O)[C@H]3O)c2n1` [Compound 141] is 5.49. On to `CCCCCCCCCCCCCCCCOCCCOC(=O)[C@H](C)NP(=O)(O)OC[C@H]1O[C@@H](n2cc(C(N)=O)c3c(N)nc(C)nc32)[C@H](O)[C@@H]1O` [Compound 143], for which the pEC50 is 4.58. Still for that read-out and setting: under `CCCCCCCCC(=O)Oc1ccc(COP(=O)(OCc2ccc(OC(=O)CCCCCCCC)cc2)OP(=O)(O)OC[C@H]2O[C@@H](n3cc(C(N)=O)c4c(N)nc(C)nc43)[C@H](O)[C@@H]2O)cc1` [Compound 145] stands 5.13.

The assay is the same for the next values; noted with them: murine norovirus, Table 8; N/A = assayed but no EC50 value could be measured.
As to `Cc1nc(N)c2c(C(N)=O)cn([C@@H]3O[C@@H]4OCP(=O)(O)O[C@H]4[C@H]3O)c2n1` [Compound 78], the negative logarithm of the EC50 (pEC50) was less than 4.00. Same read-out and setting: the figure for `CCCCCCCCCCCCCCCCOCCCOP(=O)(O)OC[C@H]1O[C@@H](n2cc(C(N)=O)c3c(N)nc(C)nc32)[C@H](O)[C@@H]1O` [Compound 79] is less than 4.00. The same measure, in the same setting: the figure for `Cc1nc(N)c2ccn([C@@H]3O[C@H](COCc4ccccc4)[C@@H](O)[C@H]3O)c2n1` [Compound 82] is less than 4.00; for `NC(=O)c1cn([C@@H]2O[C@H](CO)[C@@H](O)[C@H]2O)c2nc(N)nc(N)c12` [Compound 83] it is less than 4.00.

`Cc1nc(N)c2c(S(=O)(=O)O)cn([C@@H]3O[C@H](CO)[C@@H](O)[C@H]3O)c2n1` [Compound 84] had a pEC50 of less than 4.00. Still for that read-out and setting: under `Cc1nc(N)c2c(C(=N)NO)cn([C@@H]3O[C@H](CO)[C@@H](O)[C@H]3O)c2n1` [Compound 85] stands less than 4.00. `COC(=O)C(OC[C@H]1O[C@@H](n2cc(C#N)c3c(N)nc(C)nc32)[C@H](O)[C@@H]1O)P(=O)(OC)OC` (stereo partly drawn) [Compound 86] gave a pEC50 of less than 4.00. Still for that read-out and setting: under `Cc1nc(N)c2c(C(N)=O)cn([C@@H]3O[C@H](CO)[C@@H](O)[C@@]3(C)O)c2n1` [Compound 87] stands less than 4.00; under `N#Cc1nc(N)c2c(C(N)=O)cn([C@@H]3O[C@H](CO)[C@@H](O)[C@H]3O)c2n1` [Compound 89], less than 4.00. The same measure, in the same setting: under `CC#Cc1nc(N)c2c(C(N)=O)cn([C@@H]3O[C@H](CO)[C@@H](O)[C@H]3O)c2n1` [Compound 90] stands less than 4.00; under `Cc1nc(N)c2c(C(=N)N)cn([C@@H]3O[C@H](CO)[C@@H](O)[C@H]3O)c2n1` [Compound 91], less than 4.00. Same read-out and setting: the figure for `Cc1nc(N)c2c(C(N)=O)cn([C@H]3C[C@H](O)[C@@H](CO)O3)c2n1` [Compound 92] is less than 4.00; for `Cc1nc(N)c2c(C(N)=O)cn([C@@H]3O[C@H](COC(=O)[C@@H](N)C(C)C)[C@@H](OC(=O)C(N)C(C)C)[C@@]3(C)O)c2n1` (stereo partly drawn) [Compound 93] it is less than 4.00. With `Cc1nc(NO)c2c(C(N)=O)cn([C@@H]3O[C@H](CO)[C@@H](O)[C@H]3O)c2n1` [Compound 94], the pEC50 was less than 4.00. Same read-out and setting: the figure for `Cc1nc(NN)c2c(C(N)=O)cn([C@@H]3O[C@H](CO)[C@@H](O)[C@H]3O)c2n1` [Compound 95] is less than 4.00; for `Cc1nc(N)c2c(C(N)=O)cn([C@@H]3O[C@H](C)[C@@H](O)[C@H]3O)c2n1` [Compound 97] it is less than 4.00; for `Cc1nc(Cl)c2ccn(C[C@H](O)CO)c2n1` [Compound 98] it is less than 4.00. Still for that read-out and setting: under `NC(=O)c1cn([C@@H]2O[C@H](CO)[C@@H](O)[C@H]2O)c2nc(CO)nc(N)c12` [Compound 99] stands less than 4.00.

With `COC(=N)c1cn([C@@H]2O[C@@](CO)(N=[N+]=[N-])[C@@H](O)[C@H]2O)c2nc(C)nc(N)c12` [Compound 100], the pEC50 is less than 4.00. Take `Cc1nc(N)c2c(C(N)=O)cn([C@@H]3O[C@H](CO)[C@@H](F)[C@H]3O)c2n1` [Compound 101]: the pEC50 is less than 4.00. The compound `Cc1nc(N)c2c(C(N)=O)cn([C@@H]3O[C@H](C(C)O)[C@@H](O)[C@H]3O)c2n1` (stereo partly drawn) [Compound 102] gave a negative logarithm of the EC50 (pEC50) of less than 4.00.

For the compound `COC(=N)c1cn([C@@H]2O[C@H](COS(=O)(=O)CCCCl)[C@H]3OC(C)(C)O[C@H]32)c2nc(C)nc(N)c12` [Compound 103], the pEC50 was less than 4.00.

Turning to `COC(=N)c1cn([C@@H]2O[C@H](CN=[N+]=[N-])[C@@H](O)[C@H]2O)c2nc(C)nc(N)c12` [Compound 104], the pEC50 was less than 4.00. The same measure, in the same setting: under `Cc1nc(N)c2c(C(N)=O)cn([C@@H]3O[C@@](CO)(N=[N+]=[N-])[C@@H](O)[C@H]3O)c2n1` [Compound 105] stands less than 4.00. Same read-out and setting: the figure for `Cc1nc(N)c2c(C#N)cn([C@@H]3O[C@@](CO)(N=[N+]=[N-])[C@@H](O)[C@H]3O)c2n1` [Compound 106] is less than 4.00. Still for that read-out and setting: the figure for `Cc1nc(N)c2c(C(N)=O)cn([C@@H]3O[C@H](CN)[C@@H](O)[C@H]3O)c2n1` [Compound 108] is less than 4.00; for `Cc1nc(N)c2c(C(N)=O)cn([C@@H]3O[C@@H](CO)[C@@H](O)[C@H]3O)c2n1` [Compound 109] it is less than 4.00. The compound `Cc1nc(N)c2c(C(N)=O)cn([C@H]3CCCO3)c2n1` [Compound 110] gave a pEC50 of less than 4.00.

`Cc1nc(N)c2c(C(N)=O)cn([C@@H]3O[C@H](CO)[C@@H](N=[N+]=[N-])[C@H]3O)c2n1` [Compound 112]: the pEC50 is less than 4.00. `Cc1nc(N)c2c(C(N)=O)cn([C@@H]3O[C@H](CO)[C@@H](N)[C@H]3O)c2n1` [Compound 113] gave a pEC50 of less than 4.00. The same measure, in the same setting: under `Cc1nc(N)c2c(C#N)cn([C@H]3C=C[C@@H](O)O3)c2n1` [Compound 114] stands less than 4.00; under `CCOP(=O)(CO[C@@H]1C=C[C@H](n2cc(C#N)c3c(Cl)nc(C)nc32)O1)OCC` [Compound 116], less than 4.00. The same measure, in the same setting: under `Cc1nc(Cl)c2c(C#N)cn([C@@H]3O[C@H](O)[C@@H](O)[C@H]3O)c2n1` [Compound 117] stands less than 4.00; under `Cc1nc(N)c2c(C(N)=O)cn([C@@H]3O[C@H](O)[C@@H](O)[C@H]3O)c2n1` [Compound 118], less than 4.00; under `CCOP(=O)(CC[C@H]1O[C@@H](n2cc(C(N)=O)c3c(N)nc(C)nc32)[C@H](O)[C@@H]1O)OCC` [Compound 119], less than 4.00. Still for that read-out and setting: under `Cc1nc(Cl)c2ccn([C@H]3CC=CO3)c2n1` [Compound 120] stands less than 4.00; under `CCOP(=O)(CCO[C@H]1O[C@@H](n2cc(C#N)c3c(Cl)nc(C)nc32)[C@H](O)[C@@H]1O)OCC` [Compound 123], less than 4.00.

As for `Cc1nc(N)c2c(C(N)=O)cn([C@H]3C=C[C@@H](O)O3)c2n1` [Compound 124], the pEC50 is less than 4.00.

For the compound `Cc1nc(N)c2c(C(N)=O)cn([C@@H]3O[C@H](OCCP(=O)(O)O)[C@@H](O)[C@H]3O)c2n1` [Compound 125], the pEC50 is less than 4.00. `Cc1nc(/N=C/N(C)C)c2c(C(N)=O)cn([C@@H]3O[C@H](CO)[C@@H](O)[C@H]3O)c2n1` [Compound 127]: the pEC50 is 5.26. Still for that read-out and setting: under `CC(=O)Nc1nc(C)nc2c1c(C(N)=O)cn2[C@@H]1O[C@H](COC(C)=O)[C@@H](OC(C)=O)[C@H]1OC(C)=O` [Compound 128] stands less than 4.00. Same read-out and setting: under `CC(=O)OC[C@H]1O[C@@H](n2cc(C(N)=O)c3c(N)nc(C)nc32)[C@H](OC(C)=O)[C@@H]1OC(C)=O` [Compound 129] stands 4.05.

On to `CCCCCCCCCCCCCCCCOCCCC(=O)Nc1nc(C)nc2c1c(C(N)=O)cn2[C@@H]1O[C@H](CO)[C@@H](O)[C@H]1O` [Compound 130], for which the pEC50 is 4.37.

Take `CCCC(CCC)C(=O)Nc1nc(C)nc2c1c(C(N)=O)cn2[C@@H]1O[C@H](CO)[C@@H](O)[C@H]1O` [Compound 131]: the pEC50 is less than 4.00.

In turn, `Cc1nc(N)c2c(C(N)=O)cn([C@@H]3O[C@H](COP(=O)(N[C@@H](C)C(=O)OC(C)C)Oc4ccccc4)[C@@H](O)[C@H]3O)c2n1` (stereo partly drawn) [Compound 132] showed a negative-log EC50 (pEC50) of less than 4.00. Same read-out and setting: the figure for `Cc1nc(N)c2c(C(N)=O)cn([C@@H]3O[C@H](COP(=O)(N[C@@H](C)C(=O)OC(C)C)Oc4ccccc4)[C@H]4OC(=O)O[C@H]43)c2n1` (stereo partly drawn) [Compound 134] is 4.16; for `Cc1nc(N)c2c(C(N)=O)cn([C@@H]3O[C@H](COP(=O)(NCc4ccccc4)NCc4ccccc4)[C@@H](O)[C@H]3O)c2n1` [Compound 136] it is 4.19.

Consider `CCCCCCCCCCCCCCCCOCCCOP(=O)(N[C@@H](C)C(=O)OC(C)C)OC[C@H]1O[C@@H](n2cc(C(N)=O)c3c(N)nc(C)nc32)[C@H](O)[C@@H]1O` (stereo partly drawn) [Compound 140], for which the pEC50 was less than 4.00.

As to `CCCCCCCCCCCCCCCOCCCOC(=O)C(C)NP(=O)(OCc1ccccc1C)OC[C@H]1O[C@@H](n2cc(C(N)=O)c3c(N)nc(C)nc32)[C@H](O)[C@@H]1O` (stereo partly drawn) [Compound 142], the pEC50 was less than 4.00. On the same count and under the same terms, the figure for `C=Cc1c(C(N)=O)c2c(N)nc(C)nc2n1[C@@H]1O[C@H](CO)[C@@H](O)[C@H]1O` [Compound 144] is less than 4.00.
